The test system of one assay is sperm. Nature of the assay: Suppression of sperm mobility, manual counting of motile vs non-motile sperm. Type of assay: cell-based, mouse. Conditions: incubated 1 hour at 37° C., 30% non-motile without inhibitor. How it is done: The inhibition of sperm function, i.e. the inhibition of sperm mobility, was determined as follows:
PMCA4-deficient male mice were sacrificed and the epididymis of each was prepared. These tissues were placed into 2 ml of a sperm preparation medium (“Sperm Preparation Medium” from the MediCult a/s Company, Möllehaven 12, 4040 Jyllinge, Denmark, comprising: Earle's balanced saline solution, sodium pyruvate, synthetic serum substitute, IIEPES [hydroxy-ethyl-piperazine ethanesulphonic acid], sodium bicarbonate, human serum albumen; penicillin 50,000 IU/liter and streptomycin 50 mg/litre; Kahn, J. A., Human Reproduction 8/9, pages 1414-1419, 1993; Lähteenmaki, A., Human Reproduction 10/1, pages 142-147, 1995) and a subsequent incision was made using a sterile scalpel. All functioning sperm were allowed 15 minutes to swim out of the epididymis. The supernatant containing these sperm was removed and mixed with 500 μl each of increasing concentrations of 5- and 6-carboxyeosindiacetate succinimidyl ester (CE). Following this step, the sperm were incubated for 1 hour at 37° C. CE diffuses into the sperm during this time; the ester is hydrolyzed on the intracellular level. Afterwards, the remaining motile sperm were counted in relation to the non-motile ones.

The test system of the next assay is normal sperm. Nature of the assay: Inhibition of sperm motility evaluated automatically with the CASA System 4.2. Type of assay: cell-based, mouse. Conditions: Group C: normal sperm, 45 minutes after preparation, 37° C., 30 minutes with 20 μM inhibitor. How it is done: PMCA4-deficient male mice were sacrificed and the epididymis of each was prepared. These tissues were placed into 2 ml of a sperm preparation medium (“Sperm Preparation Medium” from the MediCult a/s Company, Möllehaven 12, 4040 Jyllinge, Denmark, comprising: Earle's balanced saline solution, sodium pyruvate, synthetic serum substitute, IIEPES [hydroxy-ethyl-piperazine ethanesulphonic acid], sodium bicarbonate, human serum albumen; penicillin 50,000 IU/liter and streptomycin 50 mg/litre; Kahn, J. A., Human Reproduction 8/9, pages 1414-1419, 1993; Lähteenmaki, A., Human Reproduction 10/1, pages 142-147, 1995) and a subsequent incision was made using a sterile scalpel. All functioning sperm were allowed 15 minutes to swim out of the epididymis. […] Afterwards, the remaining motile sperm were counted in relation to the non-motile ones.
The inhibition of sperm motility was further evaluated automatically using the CASA System 4.2 from the medeaLAB Company, Erlangen, Germany. […]
For the above automated experimental protocol, the incubation time (compared to manual counting) was shortened (only 30 minutes instead of 1 hour) and the software also recorded non-meaningful objects that were present in the sample, such objects could be readily excluded with manual counting.

The test system of the next assay is PMCA. Conditions: in vitro; cited from earlier work.

The text below walks through data of patent US20120027815A1, “USE OF PLASMA MEMBRANE CALCIUM ATPASE (PMCA) INHIBITORS TO INHIBIT SPERM MOBILITY” (priority 2003, published 2012).

Turning to “5- and 6-carboxyeosindiacetate succinimidyl ester”, the Non-motile sperm in the assay with sperm (CE concentration 5 μM) turned out to be 90%; with sperm (CE concentration 20 μM), 95%; in the assay with sperm (CE concentration 100 μM), 97%. The “locally mobile or non-motile” value in the assay with normal sperm (untreated Group A 27%) is reported as 78%. Also, in the assay with normal sperm (untreated Group A 73%), the Progressive motility came out at 22%.
On to “Caloxin 2A1: polypeptide with the amino acid sequence VSNSNWPSFPSSGGG, acts extracellularly on PMCA”, for which the “Binding to PMCA and influence on PMCA function” value with PMCA is “binds extra-cellularly to PMCA and has an inhibitory influence on the function of the PMCA”.
